Where “and” joins values, the source holds several entries; their conditions need not be identical. Equal entries are not always repeated. A value given as a limit tells only on which side of the number the result lay.

Test [1] deals with T1, bovine bc 1 complex (Bos taurus, UniProt P00157).
T1 construct: Peter Rich; from tissue
The test can be described thus: Quinol:cytochrome c reductase activity, inhibitor titration, bovine mitochondria. The test is classed as biochemical. Conditions: bovine enzyme; ratio of IC50 on concentration of monomeric bc 1 complex. As to the method:
(§1) Yeast mitochondria were prepared as in [16]. Bovine mitochondrial samples were kindly given by Prof. Peter Rich (UCL, UK). Quinol:cytochrome c reductase activity measurements were performed in 10mM potassium phosphate pH 7 and 20µM equine cytochrome c at room temperature. Mitochondria were diluted to 5–30 nM bc 1 complex. Concentrations of monomeric bc 1 complex were determined from the cytochrome b α-band in dithionite-reduced optical spectra, using ε = 28.5 mM^−1.cm^−1 at 562 nm minus 575 nm. Activity was initiated by the addition of 20µM decylubiquinol. Cytochrome c reduction was recorded at 550 nm versus 540 nm over a 3-min time-course in a Beckmann DU 640 spectrophotometer. Initial rates were measured. From these rates, turnover numbers (TN) were calculated as cytochrome c reduced per bc 1 complex per second.
(§2) Cytochrome c reduction activity was measured as described above in presence of increasing concentrations of inhibitors (six to ten different concentrations). Each measurement was repeated at least twice and averaged. […] The mid-point inhibition concentrations (IC50) were determined from the titrations. As the titrations were performed using mitochondrial samples containing different concentrations of bc 1 complex (5–30 nM), the results were presented as ratio of IC50 on the concentration of bc 1 complex.

Another test has as its target T2, Yeast WT bc 1 complex (Saccharomyces cerevisiae, UniProt P00163).
T2 construct: Yeast mitochondria were prepared as in; endogenous in cells; host or cells: Saccharomyces cerevisiae mitochondria
The test can be described thus: Quinol:cytochrome c reductase activity, inhibitor titration, yeast WT mitochondria. The test is classed as biochemical. Conditions: ratio of IC50 on concentration of monomeric bc 1 complex. As to the method: as §1, §2

Test [2] addresses T3, yeast bc 1 complex, Plasmodium-like Qo mutant PF1 (Saccharomyces cerevisiae, UniProt P00163, C133V/C134L/H141Y/V135P/Y136W).
T3 construct: Yeast mitochondria were prepared as in; expressed in transfected cells; host or cells: Saccharomyces cerevisiae, mitochondrial transformation; mitochondria
The test can be described thus: Quinol:cytochrome c reductase activity, inhibitor titration, Plasmodium-like mutant PF1. In kind it is biochemical. The settings on record: ratio of IC50 on concentration of monomeric bc 1 complex. How it is done:
(§3) The mutants were generated by side-directed mutagenesis and mitochondrial transformation as described in [15]. They have identical nuclear and mitochondrial genomes with the exception of the mutations introduced in the cytochrome b gene.
as §1, §2

Test [3] addresses T4, yeast bc 1 complex, Plasmodium-like Qo mutant PF2 (Saccharomyces cerevisiae, UniProt P00163, C133V/C134L/H141Y/L275F/V135P/Y136W).
T4 construct: Yeast mitochondria were prepared as in; expressed in transfected cells; host or cells: Saccharomyces cerevisiae, mitochondrial transformation; mitochondria
Kind of test: Quinol:cytochrome c reductase activity, inhibitor titration, Plasmodium-like mutant PF2. In kind it is biochemical. Conditions: ratio of IC50 on concentration of monomeric bc 1 complex. How it is done:
as §3, §1, §2

Test [4] has as its system yeast bc 1 complex, Plasmodium-like Qo mutant PF8. The test can be described thus: Quinol:cytochrome c reductase activity, inhibitor titration, Plasmodium-like mutant PF8. The test is classed as biochemical, Saccharomyces cerevisiae. The settings on record: for IC50: ratio of IC50 on concentration of monomeric bc 1 complex. As to the method: as §3, §1, §2
For test [5], the system named is yeast bc 1 complex, Plasmodium-like Qo mutant PF11. The test can be described thus: Quinol:cytochrome c reductase activity, inhibitor titration, Plasmodium-like mutant PF11. In kind it is biochemical, Saccharomyces cerevisiae. Conditions: for IC50: PF11, ratio of IC50 on concentration of monomeric bc 1 complex. How it is done:
as §3, §1, §2

For test [6], the system named is yeast bc 1 complex, Plasmodium-like Qo mutant PF12 (PF11 + Y279S). Kind of test: Quinol:cytochrome c reductase activity, inhibitor titration, Plasmodium-like mutant PF12. In kind it is biochemical, Saccharomyces cerevisiae. The settings on record: ratio of IC50 on concentration of monomeric bc 1 complex. As to the method: as §3, §1, §2
Test [7] deals with T5, yeast bc 1 complex, cytochrome b mutant Y279S (Saccharomyces cerevisiae, UniProt P00163, Y279S).
T5 construct: Yeast mitochondria were prepared as in; expressed in transfected cells; host or cells: Saccharomyces cerevisiae, mitochondrial transformation; mitochondria
Kind of test: Quinol:cytochrome c reductase activity, inhibitor titration, mutant Y279S. In kind it is biochemical. Conditions: ratio of IC50 on concentration of monomeric bc 1 complex. How it is done: as §3, §1, §2

For test [8], the target named is T6, yeast bc 1 complex, cytochrome b mutant L275F (Saccharomyces cerevisiae, UniProt P00163, L275F).
T6 construct: Yeast mitochondria were prepared as in; expressed in transfected cells; host or cells: Saccharomyces cerevisiae, mitochondrial transformation; mitochondria
The test can be described thus: Quinol:cytochrome c reductase activity, inhibitor titration, mutant L275F. The test is classed as biochemical. Conditions: for IC50: L275F, ratio of IC50 on concentration of monomeric bc 1 complex. As to the method:
as §3, §1, §2

The target of test [9] is T7, yeast bc 1 complex, cytochrome b mutant F278A (Saccharomyces cerevisiae, UniProt P00163, F278A).
T7 construct: Yeast mitochondria were prepared as in; expressed in transfected cells; host or cells: Saccharomyces cerevisiae, mitochondrial transformation; mitochondria
The test can be described thus: Quinol:cytochrome c reductase activity, inhibitor titration, mutant F278A. Conditions: for IC50 increase (resistance) vs WT: F278A vs yeast WT; for IC50: F278A, ratio of IC50 on concentration of monomeric bc 1 complex. In kind it is biochemical. How it is done:
as §3, §1, §2

For test [10], the target named is T8, yeast bc 1 complex, cytochrome b mutant M295L (Saccharomyces cerevisiae, UniProt P00163, M295L).
T8 construct: Yeast mitochondria were prepared as in; expressed in transfected cells; host or cells: Saccharomyces cerevisiae, mitochondrial transformation; mitochondria
The test can be described thus: Quinol:cytochrome c reductase activity, inhibitor titration, mutant M295L. In kind it is biochemical. Conditions: for IC50: M295L, ratio of IC50 on concentration of monomeric bc 1 complex. How it is done: as §3, §1, §2

For test [11], the target named is yeast bc 1 complex, human-like Qo mutant HSa. The test can be described thus: Quinol:cytochrome c reductase activity, inhibitor titration, human-like mutant HSa. Conditions: ratio of IC50 on concentration of monomeric bc 1 complex. In kind it is biochemical, Saccharomyces cerevisiae. As to the method: as §3, §1
Cytochrome c reduction activity was measured as described above in presence of increasing concentrations of inhibitors (six to ten different concentrations). Each measurement was repeated at least twice and averaged. […] The mid-point inhibition concentrations (IC50) were determined from the titrations. […]

Test [12] concerns the target T9, yeast bc 1 complex, human-like Qo mutant HSb (Saccharomyces cerevisiae, UniProt P00163, F278A/L275F/M295L).
T9 construct: Yeast mitochondria were prepared as in; expressed in transfected cells; host or cells: Saccharomyces cerevisiae, mitochondrial transformation; mitochondria
The test can be described thus: Quinol:cytochrome c reductase activity, inhibitor titration, human-like mutant HSb. In kind it is biochemical. Conditions: for IC50: HSb, ratio of IC50 on concentration of monomeric bc 1 complex. As to the method:
as §3, §1, §2

Test [13] concerns the target T10, yeast bc 1 complex, human-like Qo mutant HSc (Saccharomyces cerevisiae, UniProt P00163, C133V/C134L/F278A/H141F/L275F/M295L/V135P/Y136W).
T10 construct: Yeast mitochondria were prepared as in; expressed in transfected cells; host or cells: Saccharomyces cerevisiae, mitochondrial transformation; mitochondria
Kind of test: Quinol:cytochrome c reductase activity, inhibitor titration, human-like mutant HSc. The test is classed as biochemical. The settings on record: for IC50: HSc, ratio of IC50 on concentration of monomeric bc 1 complex. As to the method: as §3, §1, §2

Test [14] has as its system yeast bc 1 complex, PF11 with deletion Δ158–161. Kind of test: Quinol:cytochrome c reductase activity, PF11 with deletion Δ158–161. In kind it is biochemical, Saccharomyces cerevisiae. The settings on record: deletion introduced in PF11; not shown. As to the method: as §1, §2
Test [15] has as its system P. falciparum bc 1 complex. Conditions: P. falciparum enzyme; not expressed as molar ratio; cited from earlier work.
The target of test [16] is T6, yeast bc 1 complex, cytochrome b mutant L275F. The settings on record: vs yeast WT; cited from earlier work.
The subject of test [17] is Rhodabacter capsulatus bc 1 complex. The settings on record: bacterial complex, phenylalanine naturally at position 275; cited from earlier work.
The subject of test [18] is Rhodabacter capsulatus bc 1 complex, mutations I281M and R283K (yeast numbering). More on the design: method as in PMID 15917236. The settings on record: bacterial complex with I281M and R283K; cited from earlier work.
For test [19], the system named is bovine bc 1 complex. The test can be described thus: Quinol:cytochrome c reductase activity, inhibitor titration, bovine mitochondria. The test is classed as biochemical. Conditions: bovine vs yeast WT. As to the method:
as §1, §2

For another test, the system named is P. falciparum. Conditions: read-out: IC50, P. falciparum proliferation; cited from earlier work.

Take `O=C1C(O)=C([C@H]2CC[C@H](c3ccc(Cl)cc3)CC2)C(=O)c2ccccc21` [atovaquone]: the IC50 at bovine bc 1 complex [1] is 75 molar ratio; at Yeast WT bc 1 complex it was 4 molar ratio; in [2], 2 molar ratio; in test [3], 10 molar ratio; in test [4], 16 molar ratio; in test [5], 3 molar ratio. Besides, the IC50 in test [6] is >850 molar ratio; in test [7] it was >850 molar ratio; in [8], 150 molar ratio; in test [9], 35 molar ratio; in [10], 10 molar ratio; in [11] it was 200 molar ratio. Further, the IC50 was 170 molar ratio in [12]; 60 molar ratio in [13]; ~3 nM and 3 nM in test [15]; ~30 nM in [17]; 10 nM in test [18]. In addition, the “IC50 increase (resistance) vs WT” value in test [8] (L275F vs yeast WT) is listed as 35 fold; in [9] it was 9 fold; in test [10] (M295L vs yeast WT), 2.5 fold. The “resistance vs WT enzyme” value in test [13] (HSc vs yeast WT) is on record as 15 fold. Further, the “effect of deletion Δ158–161 on sensitivity” value in test [14] is “little effect”. The “decrease in sensitivity on introducing L275F in yeast bc 1 complex” value in test [16] is on record as “over 20 fold”.
On to `CO/C=C(/C(=O)OC)c1ccccc1Oc1cc(Oc2ccccc2C#N)ncn1` [azoxystrobin], for which the IC50 at bovine bc 1 complex [1] was found to be 180 molar ratio; on Yeast WT bc 1 complex, 20 molar ratio; in test [2] it was 5 molar ratio; in test [3] it was 16 molar ratio; in test [4], 220 molar ratio; in test [5], 40 molar ratio. The IC50 in test [6] turned out to be 30 molar ratio; in [7], 60 molar ratio; in [8], 30 molar ratio; in test [9] it was 120 molar ratio; in test [10], 45 molar ratio; in [11], 130 molar ratio. Further, the IC50 in test [12] was 160 molar ratio; in [13] it was 140 molar ratio; in the test with P. falciparum, 15 nM. Besides, the “resistance of the mammalian enzyme compared to yeast enzyme” value with bovine bc 1 complex [19] is recorded as 9 fold. In addition, the “increase in resistance caused by modifications of residues 283 to 299” value in test [4] stood at 10 fold. Besides, in test [5] (PF11 vs PF8), the “lowering of resistance by changes in position 133 to 141” value is given as 5 fold. The “IC50 increase (resistance) vs WT” value in test [9] is recorded as 6 fold. In addition, the “resistance conferred by triple mutation” value in test [12] (HSb vs yeast WT) was found to be 8 fold.
Consider antimycin, for which the “sensitivity compared with that of the WT control” value in [5] (PF11 vs WT, data not shown) is “No or very little difference”; in test [13] (HSc vs WT, data not shown), “No or very little difference”.
With `CCOC(=O)c1c[nH]c2cc(Oc3ccc(OC(F)(F)F)cc3)ccc2c1=O` [RCQ06], the IC50 at bovine bc 1 complex [1] was 40 molar ratio; at Yeast WT bc 1 complex, >500 molar ratio; in test [2], >500 molar ratio; in test [3], 10 molar ratio; in test [4], 40 molar ratio; in test [5], 25 molar ratio. Besides, the IC50 was >500 molar ratio in test [6]; >500 molar ratio in [7]; 10 molar ratio in test [8]; ~1.3 nM and 1.3 nM in test [15]. Further, the “increase in sensitivity vs WT” value in test [8] (L275F vs yeast WT) is on record as “over 50 fold”.

These data come from PMC3741170, “Reconstructing the Qo Site of Plasmodium falciparum bc 1 Complex in the Yeast Enzyme” (PLoS ONE, 2013).
